Measurements published in patent US7767648B2, “Tissue specific prodrugs” (priority 2000, dated 2010).

What was measured:
[1] = system: TSU prostate cancer cell line; assay: Killing of non-PSMA producing TSU prostate cancer cell line; format: cell-based, human
Procedure: The prodrugs are hydrolyzed by PSMA and release the corresponding Asp- or Glu-containing TG analogs or the TG analog itself, and also lack potent cytotoxicity when not metabolized by PSMA. Non-PSMA producing TSU-Pr1 human prostate cancer cell line is exposed to each of the prodrugs at doses that are approximately 50-times the LD50 for the corresponding free TG analog. Against the TSU prostate cancer cell line, 12ADT-Glu has an LD50 value for killing of ˜50 nM.

PSMA = PSMA (Homo sapiens, UniProt Q04609); assay: Hydrolysis of methotrexate analog substrates by purified PSMA (HPLC); format: biochemical
Chain of PSMA (Q04609 whole entry): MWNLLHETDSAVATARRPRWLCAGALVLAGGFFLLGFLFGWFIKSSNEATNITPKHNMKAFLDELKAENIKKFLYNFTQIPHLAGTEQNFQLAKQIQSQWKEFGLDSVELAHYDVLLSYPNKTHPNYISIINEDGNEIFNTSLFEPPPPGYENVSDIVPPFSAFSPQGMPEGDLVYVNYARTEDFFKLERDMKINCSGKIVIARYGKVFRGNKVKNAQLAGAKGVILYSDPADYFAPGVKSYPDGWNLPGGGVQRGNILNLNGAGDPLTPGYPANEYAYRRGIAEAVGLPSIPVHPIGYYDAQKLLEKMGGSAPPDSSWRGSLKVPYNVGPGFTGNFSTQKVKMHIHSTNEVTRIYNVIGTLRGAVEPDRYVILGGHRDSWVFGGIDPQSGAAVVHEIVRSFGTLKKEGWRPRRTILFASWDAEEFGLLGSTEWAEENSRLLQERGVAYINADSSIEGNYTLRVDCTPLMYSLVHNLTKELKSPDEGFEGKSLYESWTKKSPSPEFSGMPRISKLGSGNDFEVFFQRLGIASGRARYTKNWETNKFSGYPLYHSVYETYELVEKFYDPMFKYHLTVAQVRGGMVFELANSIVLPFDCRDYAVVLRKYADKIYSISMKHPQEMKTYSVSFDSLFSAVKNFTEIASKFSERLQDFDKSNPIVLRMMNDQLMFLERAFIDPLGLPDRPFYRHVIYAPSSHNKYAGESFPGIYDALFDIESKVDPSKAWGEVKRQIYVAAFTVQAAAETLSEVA
Procedure: The extent to which various peptide substrates are hydrolyzed by PSMA was determined by synthesizing a series of methotrexate analogs including the 4-N[N-2,4-diamino-6-pteridinyl-methyl)-N-methylamino-benzoate] (APA) portion of methotrexate coupled to a variety of peptides. Poly-glutamated methotrexate is available from Schirks Laboratories in Jona, Switzerland.
A series of α-linked peptides were investigated for PSMA hydrolysis. […] In Tables 1-3, to simplify identification of the type of amino acid linkages employed, α-linkages are denoted by a hyphen (for example, Glu-Glu) and all side-chain linkages are denoted by a star (for example, Glu*Glu).
Substrate specificity for the pteroyl poly-γ-glutamyl carboxypeptidase (folate hydrolase) activity of PSMA was determined by synthesizing a series of γ-linked methotrexate analogs and assaying them for hydrolysis by PSMA.
(§1) In Tables 1-3, to simplify identification of the type of amino acid linkages employed, α-linkages are denoted by a hyphen (for example, Glu-Glu) and all side-chain linkages are denoted by a star (for example, Glu*Glu). The column labeled “% PSMA Hydrolysis” refers to the percentage of hydrolysis of a substrate to APA-Asp or to APS-Glu by purified PSMA. The column labeled “% APA-Asp or -Glu” refers to the percentage of hydrolysis of substrate to APA-Asp or APA-Glu. The column labeled “% Prodrug Remaining” refers to the area of the HPLC peak attributable to starting material divided by the areas of HPLC peaks attributable to starting material, intermediate products, and final products. […] “ND” means “not determined,” in that the experiment was not performed.

[2] = Stability of PSMA substrates in human plasma, 18 hour incubation, HPLC; format: in vitro ADME; settings: 18 hour incubation in human plasma
Source text: (§2) In order that the prodrugs can be administered systemically via the blood, their stability in sera must be sufficiently high to avoid hydrolysis or other degradative processes which may occur prior to the prodrugs reaching their target tissues. In addition to GGH activity, a human blood plasma glutamate carboxypeptidase (PGCP) that has significant sequence homology to PSMA and glutamate carboxypeptidase activity has been identified. Therefore, to assay hydrolysis by GGH and other serum carboxypeptidases like PGCP, the APA-Glu*Glu*Glu*Glu*Asp, APA-Glu*Glu*Glu*Glu*Gln, and APA-Glu*Glu*Glu*Glu*Glu substrates were incubated in human and mouse plasma and hydrolysis determined by HPLC analysis after an 18-hour incubation, as shown in Table 3. As noted, GGH efficiently hydrolyzes poly-γ-glutamate chains as well as poly-γ-glutamated folate and methotrexate. GGH, however, is unable to hydrolyze α-linked peptides.
as §1

[3] = Stability of PSMA substrates in mouse plasma, 18 hour incubation, HPLC; format: in vitro ADME; settings: 18 hour incubation in mouse plasma
Source text: as §2, §1

TSU cancer cell line = assay: Inhibition of clonogenic survival of TSU cells in presence or absence of exogenous PSMA; format: cell-based; settings: exogenous PSMA 10 micrograms/mL, FIG. 4
Procedure: FIG. 4 is a graph of the percentage inhibition of clonogenic survival of TSU cells exposed to various concentrations of APA-Glu*Glu*Glu*Glu*Asp in the presence or absence of PSMA.
The methotrexate analog sequence APA-Glu*Glu*Glu*Glu*Asp was contacted with the non-PSMA producing TSU cancer cell line in various amounts. Exogenous PSMA (10 micrograms/mL) was added to the media and the percent inhibition of clonogenic survival was monitored.

Molecule: 8-O-(12-[L-glutamylamino]-dodecanoyl)-8-O-debutanoylthapsigargin [12ADT-Glu]
- LD50 value for killing [1]: approximately 50 nM

Molecule: CN(Cc1cnc2nc(N)nc(N)c2n1)c1ccc(C(=O)N[C@@H](CCC(=O)N[C@@H](CCC(=O)N[C@@H](CCC(=O)N[C@@H](CCC(=O)N[C@@H](CC(=O)O)C(=O)O)C(=O)O)C(=O)O)C(=O)O)C(=O)O)cc1 [APA-Glu*Glu*Glu*Glu*Asp]
- % hydrolysis after 24 hours (PSMA; Table 2, γ-linked analogs, incubated with PSMA 24 hours): 40.9%
- % hydrolysis after 48 hours (PSMA; Table 2, γ-linked analogs, incubated with PSMA 48 hours): 77.7%
- % PSMA hydrolysis 24 h (PSMA; Table 3, hydrolysis of substrate to APA-Asp or APA-Glu by purified PSMA, 24 h): 98%
- % PSMA hydrolysis 48 h (PSMA; Table 3, hydrolysis of substrate to APA-Asp or APA-Glu by purified PSMA, 48 h): 100%
- hydrolysis by PSMA (in words) (PSMA; text summary of the tables): to a greater extent after 24 hours than any of the γ-linked dipeptide analogs
- remaining at 18 h ([2]; HPLC peak area of starting material over all peaks, read-out: % Prodrug Remaining): 20%
- % APA-Glu or -Asp ([2]; hydrolysis of substrate to APA-Asp or APA-Glu): 9%
- % APA-Glu or -Asp [3]: 72%
- selectivity, percent inhibition of clonogenic survival with versus without PSMA (TSU cancer cell line): there is selectivity
